{
  "source": "patent US20190169691A1",
  "about": "“HERITABLE EPIGENETIC MODIFICATIONS AS MARKERS OF CHEMOTHERAPY EXPOSURE” (Washington State University, priority 2016, published 2019)",
  "system": "sperm",
  "test": "Semen analysis: sperm number and seminal fluid parameters (CASA) after adolescent chemotherapy",
  "type": "in vivo, human",
  "conditions": "individual adult male osteosarcoma survivors, semen collected approximately ten years after chemotherapy at 14-20 years of age",
  "text": "The patients were 19-30 year-old male survivors of osteosarcoma recruited from the Seattle Children's Hospital in Seattle Wash. and four collaborating institutions (Children's Hospital of Pennsylvania, Philadelphia, Pa.; Miller Children's, Long Beach, Calif.; Children's Hospital, University of Minnesota, Minneapolis, Minn.; and Children's Hospital, Vanderbilt University, Nashville, Tenn.). These men had been treated for their disease with cisplatin-based chemotherapy regimens, including ifosfamide in some cases, when they were 14-20 years of age. Each patient was recruited by in-clinic or mail recruitment protocols. […]\nEach patient and control was asked to provide a semen sample via home seminal fluid collection, which we used to allow for ease of subject participation since the sample can be obtained without the individual traveling to a laboratory. […] For sperm concentration (per ml), each participant's semen was diluted and assessed by CASA (Computer Assisted Sperm Analysis). […] Although sperm motility was not assessed (because it requires a fresh sample), count and morphology data nonetheless provide a great deal of information regarding spermatogenesis and abnormalities and both are associated with an increased risk of infertility. […]",
  "note": "“And” between values parts separate entries of the source, which are not always exact repeats. Equal values may be shown once.",
  "data": [
    {"compound": "N.N.[Cl][Pt][Cl]", "note": "[Cisplatin, cisplatin]", "values": [
      {"measurement": "Sperm # (Total Millions)", "result": "100.2 Total Millions and 170.5 Total Millions and 178 Total Millions and 7.34 Total Millions and 21 Total Millions and 49 Total Millions and 55 Total Millions"}
    ]}
  ]
}
